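These data come from cells grown in 96-well plates and exposed to compound for 48 hours at five concentrations. At the GI50, growth is halved. TGI is the concentration that stops growth completely.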
Experiments:
Assay in all cases: DTP human tumour cell line panel, 48 h
NCI-H522 lung = tested on: NCI-H522 lung
LOX IMVI melanoma = tested on: LOX IMVI melanoma
RPMI-8226 leukemia = tested on: RPMI-8226 leukemia
K-562 leukemia = tested on: K-562 leukemia
EKVX NSCLC = tested on: EKVX NSCLC
MCF7 breast = tested on: MCF7 breast
HS 578T breast = tested on: HS 578T breast
M14 melanoma = tested on: M14 melanoma
NCI-H226 lung = tested on: NCI-H226 lung
MALME-3M melanoma = tested on: MALME-3M melanoma
A549 NSCLC = tested on: A549 NSCLC
OVCAR-5 ovarian = tested on: OVCAR-5 ovarian
T-47D breast = tested on: T-47D breast
SR leukemia = tested on: SR leukemia
KM12 colon = tested on: KM12 colon
SK-OV-3 ovarian = tested on: SK-OV-3 ovarian
SK-MEL-5 melanoma = tested on: SK-MEL-5 melanoma
NCI-H460 lung = tested on: NCI-H460 lung
TK-10 renal = tested on: TK-10 renal
UACC-62 melanoma = tested on: UACC-62 melanoma
UACC-257 melanoma = tested on: UACC-257 melanoma
HT29 colon = tested on: HT29 colon
DU-145 prostate = tested on: DU-145 prostate
RXF 393 renal = tested on: RXF 393 renal
U251 CNS = tested on: U251 CNS
IGROV1 ovarian = tested on: IGROV1 ovarian
CAKI-1 renal = tested on: CAKI-1 renal
SW-620 colon = tested on: SW-620 colon
SN12C renal = tested on: SN12C renal
SNB-75 CNS = tested on: SNB-75 CNS
HL-60(TB) leukemia = tested on: HL-60(TB) leukemia
BT-549 breast = tested on: BT-549 breast
COLO 205 colon = tested on: COLO 205 colon
OVCAR-4 ovarian = tested on: OVCAR-4 ovarian
OVCAR-3 ovarian = tested on: OVCAR-3 ovarian
SK-MEL-28 melanoma = tested on: SK-MEL-28 melanoma
NCI/ADR-RES ovarian = tested on: NCI/ADR-RES ovarian
HCT-15 colon = tested on: HCT-15 colon
NCI-H23 lung = tested on: NCI-H23 lung
MOLT-4 leukemia = tested on: MOLT-4 leukemia
MDA-MB-231 breast = tested on: MDA-MB-231 breast
HOP-92 NSCLC = tested on: HOP-92 NSCLC
HCT-116 colon = tested on: HCT-116 colon
SF-295 CNS = tested on: SF-295 CNS
HCC-2998 colon = tested on: HCC-2998 colon
MDA-MB-435 = tested on: MDA-MB-435
HOP-62 NSCLC = tested on: HOP-62 NSCLC
SNB-19 CNS = tested on: SNB-19 CNS
A498 renal = tested on: A498 renal
786-0 renal = tested on: 786-0 renal
ACHN renal = tested on: ACHN renal
SF-539 CNS = tested on: SF-539 CNS
OVCAR-8 ovarian = tested on: OVCAR-8 ovarian
SK-MEL-2 melanoma = tested on: SK-MEL-2 melanoma
PC-3 prostate = tested on: PC-3 prostate
CCRF-CEM leukemia = tested on: CCRF-CEM leukemia
SF-268 CNS = tested on: SF-268 CNS

Structure (SMILES): C=CCN1C(=O)/C(=c2\sc3n(c2=O)C2C(NN=3)N(CC)C(=O)N2CC)c2ccccc21 (stereo unspecified)
- GI50 (NCI-H522 lung): 379 nM
- GI50 (LOX IMVI melanoma): 698 nM
- TGI (LOX IMVI melanoma): > 100 µM
- GI50 (RPMI-8226 leukemia): 657 nM
- TGI (RPMI-8226 leukemia): > 100 µM
- GI50 (K-562 leukemia): 414 nM
- TGI (K-562 leukemia): > 100 µM
- GI50 (EKVX NSCLC): 1390 nM
- TGI (EKVX NSCLC): > 100 µM
- GI50 (MCF7 breast): 448 nM
- TGI (MCF7 breast): > 100 µM
- GI50 (HS 578T breast): 447 nM
- TGI (HS 578T breast): 58.5 µM
- GI50 (M14 melanoma): 446 nM
- TGI (M14 melanoma): > 100 µM
- GI50 (NCI-H226 lung): 2190 nM
- TGI (NCI-H226 lung): > 100 µM
- GI50 (MALME-3M melanoma): 1280 nM
- TGI (MALME-3M melanoma): > 100 µM
- GI50 (A549 NSCLC): 1210 nM
- TGI (A549 NSCLC): > 100 µM
- GI50 (OVCAR-5 ovarian): 1550 nM
- TGI (OVCAR-5 ovarian): > 100 µM
- GI50 (T-47D breast): 438 nM
- TGI (T-47D breast): > 100 µM
- GI50 (SR leukemia): 380 nM
- TGI (SR leukemia): > 100 µM
- GI50 (KM12 colon): 439 nM
- TGI (KM12 colon): > 100 µM
- GI50 (SK-OV-3 ovarian): 1450 nM
- TGI (SK-OV-3 ovarian): > 23.9 µM
- GI50 (SK-MEL-5 melanoma): 421 nM
- TGI (SK-MEL-5 melanoma): 2050 nM
- GI50 (NCI-H460 lung): 413 nM
- TGI (NCI-H460 lung): > 100 µM
- GI50 (TK-10 renal): 1850 nM
- TGI (TK-10 renal): > 20.5 µM
- GI50 (UACC-62 melanoma): 612 nM
- TGI (UACC-62 melanoma): > 62.1 µM
- TGI (UACC-257 melanoma): > 100 µM
- GI50 (HT29 colon): 390 nM
- GI50 (DU-145 prostate): 590 nM
- TGI (DU-145 prostate): > 37.3 µM
- GI50 (RXF 393 renal): 328 nM
- TGI (RXF 393 renal): 1940 nM
- GI50 (U251 CNS): 726 nM
- TGI (U251 CNS): > 33.5 µM
- GI50 (IGROV1 ovarian): 978 nM
- TGI (IGROV1 ovarian): > 100 µM
- GI50 (CAKI-1 renal): 474 nM
- TGI (CAKI-1 renal): > 100 µM
- GI50 (SW-620 colon): 423 nM
- TGI (SW-620 colon): > 100 µM
- GI50 (SN12C renal): 700 nM
- TGI (SN12C renal): > 100 µM
- GI50 (SNB-75 CNS): 254 nM
- TGI (SNB-75 CNS): 2980 nM
- GI50 (HL-60(TB) leukemia): 315 nM
- TGI (HL-60(TB) leukemia): 2050 nM
- GI50 (BT-549 breast): 1650 nM
- TGI (BT-549 breast): > 75.6 µM
- GI50 (COLO 205 colon): 549 nM
- TGI (COLO 205 colon): > 20.4 µM
- GI50 (OVCAR-4 ovarian): 1030 nM
- TGI (OVCAR-4 ovarian): > 100 µM
- GI50 (OVCAR-3 ovarian): 377 nM
- TGI (OVCAR-3 ovarian): 2350 nM
- GI50 (SK-MEL-28 melanoma): 5.36 µM
- TGI (SK-MEL-28 melanoma): > 100 µM
- GI50 (NCI/ADR-RES ovarian): 434 nM
- TGI (NCI/ADR-RES ovarian): > 40.5 µM
- GI50 (HCT-15 colon): 451 nM
- TGI (HCT-15 colon): > 100 µM
- GI50 (NCI-H23 lung): 880 nM
- TGI (NCI-H23 lung): > 50.7 µM
- GI50 (MOLT-4 leukemia): 1710 nM
- TGI (MOLT-4 leukemia): > 100 µM
- GI50 (MDA-MB-231 breast): 1230 nM
- TGI (MDA-MB-231 breast): 7.96 µM
- GI50 (HOP-92 NSCLC): 842 nM
- TGI (HOP-92 NSCLC): 9.2 µM
- GI50 (HCT-116 colon): 403 nM
- TGI (HCT-116 colon): > 100 µM
- GI50 (SF-295 CNS): 455 nM
- TGI (SF-295 CNS): > 33.7 µM
- GI50 (HCC-2998 colon): 1280 nM
- TGI (HCC-2998 colon): > 100 µM
- GI50 (MDA-MB-435): 207 nM
- TGI (MDA-MB-435): 491 nM
- GI50 (HOP-62 NSCLC): 1020 nM
- TGI (HOP-62 NSCLC): > 53.5 µM
- GI50 (SNB-19 CNS): 973 nM
- TGI (SNB-19 CNS): > 74.9 µM
- GI50 (A498 renal): 246 nM
- TGI (A498 renal): 1170 nM
- GI50 (786-0 renal): 708 nM
- TGI (786-0 renal): 14.9 µM
- GI50 (ACHN renal): 834 nM
- TGI (ACHN renal): > 100 µM
- GI50 (SF-539 CNS): 346 nM
- TGI (SF-539 CNS): 2870 nM
- GI50 (OVCAR-8 ovarian): 1120 nM
- TGI (OVCAR-8 ovarian): > 100 µM
- GI50 (SK-MEL-2 melanoma): 2170 nM
- TGI (SK-MEL-2 melanoma): > 38.7 µM
- GI50 (PC-3 prostate): 548 nM
- TGI (PC-3 prostate): > 100 µM
- GI50 (CCRF-CEM leukemia): 469 nM
- TGI (CCRF-CEM leukemia): > 100 µM
- GI50 (SF-268 CNS): 1260 nM
- TGI (SF-268 CNS): > 100 µM
